From patent US9113629B2, “4-amino-6-(4-substituted-phenyl)-picolinates and 6-amino-2-(4-substituted-phenyl)-pyrimidine-4-carboxylates and their use as herbicides” (DOW AGROSCIENCES LLC, priority 2013, dated 2015)

System: LOLSS: ryegrass including, Italian ryegrass (Lolium multiflorum), rigid ryegrass (Lolium rigidum), annual ryegrass (Lolium multiflorum subsp. Gaudini)
Assay: Post-emergent Test III, herbicidal activity in wheat and barley
Type: in vivo
Conditions: probit analysis, dose for growth reduction of 50 percent, 21 days after application
How it was run: (§1)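 Plants at the second to third true-leaf stage, grown in a greenhouse at about 18/17 °C with a 14 h photoperiod, were sprayed post-emergence at 187 L/ha with the high rate and ½× to 1/16× serial dilutions in an acetone/DMSO/crop-oil/surfactant carrier. Injury was rated visually at 21 d on a 0–100% scale, and GR20–GR90 were derived by probit analysis.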
For `N#Cc1ccc(-c2nc(C(=O)O)c(Cl)c(N)c2F)cc1` [Compound 39], the “GR50 LOLSS” value was 82 g ai/ha.

Same assay, conditions: probit analysis, dose for growth reduction of 80 percent, 21 days after application
With `N#Cc1ccc(-c2nc(C(=O)O)c(Cl)c(N)c2F)cc1` [Compound 39] the “GR80 LOLSS” value was over 140 g ai/ha.

System: APESV: bentgrass (Apera spica-venti)
Assay: as above
Type: in vivo
Conditions: Apera spica-venti, post-emergence, 504 h; 35 g ai/ha; read-out: Visual Growth Reduction (%) 21 Days After Application APESV
How it was run: as §1
`N#Cc1ccc(-c2nc(C(=O)O)c(Cl)c(N)c2F)cc1` [Compound 39] gave a pest or weed control at 35 g/ha of 30 to 44%.

Same assay, conditions: Apera spica-venti, post-emergence, 504 h; 70 g ai/ha; read-out: Visual Growth Reduction (%) 21 Days After Application APESV
With `N#Cc1ccc(-c2nc(C(=O)O)c(Cl)c(N)c2F)cc1` [Compound 39] the pest or weed control at 70 g/ha was 45 to 59%.

Same assay, conditions: Apera spica-venti, post-emergence, 504 h; 140 g ai/ha; read-out: Visual Growth Reduction (%) 21 Days After Application APESV
For `N#Cc1ccc(-c2nc(C(=O)O)c(Cl)c(N)c2F)cc1` [Compound 39], the pest or weed control at 140 g/ha was 60 to 74%.

Same assay, conditions: probit analysis, dose for growth reduction of 50 percent, 21 days after application
With `N#Cc1ccc(-c2nc(C(=O)O)c(Cl)c(N)c2F)cc1` [Compound 39] the “GR50 APESV” value was 70 g ai/ha.

Same assay, conditions: probit analysis, dose for growth reduction of 80 percent, 21 days after application
In the case of `N#Cc1ccc(-c2nc(C(=O)O)c(Cl)c(N)c2F)cc1` [Compound 39], the “GR80 APESV” value is reported as over 140 g ai/ha.

System: MATSS: scented mayweed (Matricaria chamomilla), pineappleweed (Matricaria matricarioides)
Assay: as above
Type: in vivo
Conditions: Matricaria chamomilla, post-emergence, 504 h; 35 g ai/ha; read-out: Visual Growth Reduction (%) 21 Days After Application MATSS
How it was run: as §1
`N#Cc1ccc(-c2nc(C(=O)O)c(Cl)c(N)c2F)cc1` [Compound 39] gave a pest or weed control at 35 g/ha of 95 to 100%.

Same assay, conditions: Matricaria chamomilla, post-emergence, 504 h; 70 g ai/ha; read-out: Visual Growth Reduction (%) 21 Days After Application MATSS
In the case of `N#Cc1ccc(-c2nc(C(=O)O)c(Cl)c(N)c2F)cc1` [Compound 39], the pest or weed control at 70 g/ha is reported as 95 to 100%.

Same assay, conditions: Matricaria chamomilla, post-emergence, 504 h; 140 g ai/ha; read-out: Visual Growth Reduction (%) 21 Days After Application MATSS
In the case of `N#Cc1ccc(-c2nc(C(=O)O)c(Cl)c(N)c2F)cc1` [Compound 39], the pest or weed control at 140 g/ha is reported as 95 to 100%.

Same assay, conditions: probit analysis, dose for growth reduction of 50 percent, 21 days after application
For `N#Cc1ccc(-c2nc(C(=O)O)c(Cl)c(N)c2F)cc1` [Compound 39], the “GR50 MATSS” value was 1 g ai/ha.

Same assay, conditions: probit analysis, dose for growth reduction of 80 percent, 21 days after application
In the case of `N#Cc1ccc(-c2nc(C(=O)O)c(Cl)c(N)c2F)cc1` [Compound 39], the “GR80 MATSS” value is reported as 1 g ai/ha.

System: not listed separately
Assay: as above
Type: in vivo, Lolium multiflorum, Lolium rigidum
Conditions: Lolium multiflorum, post-emergence, 504 h; 35 g ai/ha; read-out: Visual Growth Reduction (%) 21 Days After Application LOLSS
How it was run: as §1
`N#Cc1ccc(-c2nc(C(=O)O)c(Cl)c(N)c2F)cc1` [Compound 39] gave a pest or weed control at 35 g/ha of 30 to 44%.

Same assay, conditions: Lolium multiflorum, post-emergence, 504 h; 70 g ai/ha; read-out: Visual Growth Reduction (%) 21 Days After Application LOLSS
In the case of `N#Cc1ccc(-c2nc(C(=O)O)c(Cl)c(N)c2F)cc1` [Compound 39], the pest or weed control at 70 g/ha is reported as 45 to 59%.

Same assay, conditions: Lolium multiflorum, post-emergence, 504 h; 140 g ai/ha; read-out: Visual Growth Reduction (%) 21 Days After Application LOLSS
Compound `N#Cc1ccc(-c2nc(C(=O)O)c(Cl)c(N)c2F)cc1` [Compound 39] has a pest or weed control at 140 g/ha of 60 to 74%.

System: TRZSS: wheat, including spring and winter (Triticum aestivum)
Assay: as above
Type: in vivo
Conditions: Triticum aestivum, post-emergence, 504 h; 35 g ai/ha; read-out: Visual Growth Reduction (%) 21 Days After Application TRZSS
How it was run: as §1
With `N#Cc1ccc(-c2nc(C(=O)O)c(Cl)c(N)c2F)cc1` [Compound 39] the pest or weed control at 35 g/ha was 75 to 84%.

Same assay, conditions: Triticum aestivum, post-emergence, 504 h; 70 g ai/ha; read-out: Visual Growth Reduction (%) 21 Days After Application TRZSS
`N#Cc1ccc(-c2nc(C(=O)O)c(Cl)c(N)c2F)cc1` [Compound 39] showed a pest or weed control at 70 g/ha of 75 to 84%.

Same assay, conditions: Triticum aestivum, post-emergence, 504 h; 140 g ai/ha; read-out: Visual Growth Reduction (%) 21 Days After Application TRZSS
In the case of `N#Cc1ccc(-c2nc(C(=O)O)c(Cl)c(N)c2F)cc1` [Compound 39], the pest or weed control at 140 g/ha is reported as 85 to 94%.

Same assay, conditions: probit analysis, dose for growth reduction of 20 percent, 21 days after application; crop
With `N#Cc1ccc(-c2nc(C(=O)O)c(Cl)c(N)c2F)cc1` [Compound 39] the “GR20 TRZSS” value was 1 g ai/ha.

System: SETVI: green foxtail (Setaria viridis)
Assay: as above
Type: in vivo
Conditions: Setaria viridis, post-emergence, 504 h; 35 g ai/ha; read-out: Visual Growth Reduction (%) 21 Days After Application SETVI
How it was run: as §1
`N#Cc1ccc(-c2nc(C(=O)O)c(Cl)c(N)c2F)cc1` [Compound 39] showed a pest or weed control at 35 g/ha of 30 to 44%.

Same assay, conditions: Setaria viridis, post-emergence, 504 h; 70 g ai/ha; read-out: Visual Growth Reduction (%) 21 Days After Application SETVI
Compound `N#Cc1ccc(-c2nc(C(=O)O)c(Cl)c(N)c2F)cc1` [Compound 39] has a pest or weed control at 70 g/ha of 45 to 59%.

Same assay, conditions: Setaria viridis, post-emergence, 504 h; 140 g ai/ha; read-out: Visual Growth Reduction (%) 21 Days After Application SETVI
In the case of `N#Cc1ccc(-c2nc(C(=O)O)c(Cl)c(N)c2F)cc1` [Compound 39], the pest or weed control at 140 g/ha is reported as 60 to 74%.

Same assay, conditions: probit analysis, dose for growth reduction of 50 percent, 21 days after application
In the case of `N#Cc1ccc(-c2nc(C(=O)O)c(Cl)c(N)c2F)cc1` [Compound 39], the “GR50 SETVI” value is reported as 68 g ai/ha.

Same assay, conditions: probit analysis, dose for growth reduction of 80 percent, 21 days after application
For `N#Cc1ccc(-c2nc(C(=O)O)c(Cl)c(N)c2F)cc1` [Compound 39], the “GR80 SETVI” value was over 140 g ai/ha.

System: KCHSC: kochia (Kochia scoparia)
Assay: as above
Type: in vivo
Conditions: Bassia scoparia, post-emergence, 504 h; 35 g ai/ha; read-out: Visual Growth Reduction (%) 21 Days After Application KCHSC
How it was run: as §1
`N#Cc1ccc(-c2nc(C(=O)O)c(Cl)c(N)c2F)cc1` [Compound 39] gave a pest or weed control at 35 g/ha of 75 to 84%.

Same assay, conditions: Bassia scoparia, post-emergence, 504 h; 70 g ai/ha; read-out: Visual Growth Reduction (%) 21 Days After Application KCHSC
Compound `N#Cc1ccc(-c2nc(C(=O)O)c(Cl)c(N)c2F)cc1` [Compound 39] has a pest or weed control at 70 g/ha of 85 to 94%.

Same assay, conditions: Bassia scoparia, post-emergence, 504 h; 140 g ai/ha; read-out: Visual Growth Reduction (%) 21 Days After Application KCHSC
In the case of `N#Cc1ccc(-c2nc(C(=O)O)c(Cl)c(N)c2F)cc1` [Compound 39], the pest or weed control at 140 g/ha is reported as 85 to 94%.

Same assay, conditions: probit analysis, dose for growth reduction of 50 percent, 21 days after application
For `N#Cc1ccc(-c2nc(C(=O)O)c(Cl)c(N)c2F)cc1` [Compound 39], the “GR50 KCHSC” value was 3 g ai/ha.

Same assay, conditions: probit analysis, dose for growth reduction of 80 percent, 21 days after application
With `N#Cc1ccc(-c2nc(C(=O)O)c(Cl)c(N)c2F)cc1` [Compound 39] the “GR80 KCHSC” value was 40 g ai/ha.

System: HORSS: barley, including spring and winter (Hordeum vulgare)
Assay: as above
Type: in vivo
Conditions: Hordeum vulgare, post-emergence, 504 h; 35 g ai/ha; read-out: Visual Growth Reduction (%) 21 Days After Application HORSS
How it was run: as §1
With `N#Cc1ccc(-c2nc(C(=O)O)c(Cl)c(N)c2F)cc1` [Compound 39] the pest or weed control at 35 g/ha was 30 to 44%.

Same assay, conditions: Hordeum vulgare, post-emergence, 504 h; 70 g ai/ha; read-out: Visual Growth Reduction (%) 21 Days After Application HORSS
`N#Cc1ccc(-c2nc(C(=O)O)c(Cl)c(N)c2F)cc1` [Compound 39] gave a pest or weed control at 70 g/ha of 45 to 59%.

Same assay, conditions: Hordeum vulgare, post-emergence, 504 h; 140 g ai/ha; read-out: Visual Growth Reduction (%) 21 Days After Application HORSS
Work on `N#Cc1ccc(-c2nc(C(=O)O)c(Cl)c(N)c2F)cc1` [Compound 39] yielded a pest or weed control at 140 g/ha of 60 to 74%.

Same assay, conditions: probit analysis, dose for growth reduction of 20 percent, 21 days after application; crop
In the case of `N#Cc1ccc(-c2nc(C(=O)O)c(Cl)c(N)c2F)cc1` [Compound 39], the “GR20 HORSS” value is reported as 18 g ai/ha.
